In patent US20240199640A1, “NEGATIVE ALLOSTERIC MODULATORS OF METABOTROPIC GLUTAMATE RECEPTOR 2” (priority 2021, published 2024):

Columns and labels:
[1] = molecular target: T1, human mGlu3 (Homo sapiens, UniProt Q14832); experiment: mGlu GIRK cell-based thallium flux assay, human mGlu3; details: HEK-293 cells co-expressing human mGlu3 and GIRK; EC80 glutamate; Tl flux
T1 construct: expressed in transfected cells; host or cells: HEK-293
Experimental: Human embryonic kidney (HEK-293) cell lines stably co-expressing human or rat mGlu2 and G protein-coupled inwardly rectifying potassium (GIRK) channels, or human mGlu3 and GIRK, were used for in vitro evaluation of compound activity in thallium flux assay using a fluorescent thallium indicator dye.
The day before the assay, GIRK cells co-expressing human mGlu3, human or rat mGlu2, as described above, were plated in black-walled, clear-bottomed, amine-coated 384-well plates at a density of 15,000 cells/20 μL/well in the assay medium (glutamine-depleted basal DMEM supplemented with 10% dialyzed FBS, 20 mM HEPES, 1 mM sodium pyruvate). Cells were incubated at 37° C. in the presence of 5% CO2. The next day, assay buffer (Hanks balanced salt solution, 20 mM HEPES, 4.16 mM sodium bicarbonate, pH 7.2) was prepared to dilute compounds and Thallos AM fluorescent dye solution. The 2× Thallos dye solution (final concentration 0.34 μM to the cells) was prepared by mixing the dye stock (2.97 mM in DMSO) to 1:1 with 10% pluronic acid before adding to the assay buffer. Cells were washed with assay buffer using a microplate washer to remove the medium, resulting in 20 μL of buffer remaining in each well. Immediately, 20 μL of 2× Thallos dye solution was added to cells, and incubated for one hour at 25° C. During the cell dye loading incubation period, a 10-point concentration serial dilution of compound was created from a 10 mM DMSO compound stock by performing a 1:3 serial dilution in DMSO using the Bravo liquid handler. The 2× compound plate was generated by transferring 0.24 μL of the diluted compound in each well to a daughter plate using an Echo acoustic liquid handler. This is further diluted in 40 μL assay buffer, resulting in a range from 30 μM to 1.5 nM final concentration in the assay. The agonist plate (5×) was prepared to include EC80 glutamate concentration (a concentration to elicit 80% of a maximally effective glutamate concentration) in thallium buffer (125 mM […], 1 mM magnesium sulfate, 1.8 mM calcium sulfate, 5 mM glucose, 10 mM HEPES, pH 7.2, 12.5 mM thallium sulfate).
(§1) After dye-loading, cell plates were washed with assay buffer to remove excess extracellular dye using a microplate washer, resulting in 20 μL of buffer remaining in each well. After a ten-minute equilibration period, cell, compound and agonist plates were loaded into a Hamamatsu μCell kinetic imaging plate reader equipped with liquid handler to monitor fluorescence changes at 480 nm excitation and 540 nm emission settings. Briefly, after collection of baseline fluorescence, 20 μL of compound was added and incubated for two minutes and twenty seconds. This is immediately followed by adding 10 μL of glutamate-thallium buffer to the wells containing compound. The fluorescent signal was monitored an additional 2.5 minutes after the glutamate addition. Multiple reference wells containing no compound received either no glutamate (for a baseline reference), […] glutamate, or ECmax glutamate (for normalization to maximum response). Fluorescence was measured throughout the experiment at a frequency of 1 measurement per every 2 seconds before the glutamate addition and a frequency of 1 measurement per every 1 second after the glutamate addition. Each compound concentration series occurred one time in each plate, and replicates from two or three plates were used in each experimental run. Thallium solutions were handled and disposed of according to guidelines from the Vanderbilt University Chemical Safety department.
Data were normalized using a static ratio function (F/F0) by dividing every fluorescent measurement by the initial fluorescent value for the corresponding well. The increase in signal resulting from the glutamate/thallium addition of the second add was measured by determining the slope from 3 seconds to 13 seconds after the addition. […]

[2] = molecular target: T2, human mGlu2 (Homo sapiens, UniProt Q14416); experiment: mGlu GIRK cell-based thallium flux assay, human mGlu2; details: HEK-293 cells co-expressing human mGlu2 and GIRK; EC80 glutamate; Tl flux
T2 construct: expressed in transfected cells; host or cells: HEK-293
Experimental: The day before the assay, GIRK cells co-expressing human mGlu3, human or rat mGlu2, as described above, were plated in black-walled, clear-bottomed, amine-coated 384-well plates at a density of 15,000 cells/20 μL/well in the assay medium (glutamine-depleted basal DMEM supplemented with 10% dialyzed FBS, 20 mM HEPES, 1 mM sodium pyruvate). Cells were incubated at 37° C. in the presence of 5% CO2. […] Cells were washed with assay buffer using a microplate washer to remove the medium, resulting in 20 μL of buffer remaining in each well. Immediately, 20 μL of 2× Thallos dye solution was added to cells, and incubated for one hour at 25° C. During the cell dye loading incubation period, a 10-point concentration serial dilution of compound was created from a 10 mM DMSO compound stock by performing a 1:3 serial dilution in DMSO using the Bravo liquid handler. The 2× compound plate was generated by transferring 0.24 μL of the diluted compound in each well to a daughter plate using an Echo acoustic liquid handler.
as §1
Data were normalized using a static ratio function (F/F0) by dividing every fluorescent measurement by the initial fluorescent value for the corresponding well. The increase in signal resulting from the glutamate/thallium addition of the second add was measured by determining the slope from 3 seconds to 13 seconds after the addition. The average of all baseline slopes (no compound, no glutamate) was determined and this value was subtracted from all other slope values. The average of all ECmax slopes was determined and this value was used to normalize the baseline-corrected slopes to a percent max value (% Emax). The % Emax values for each compound series were plotted versus the log of the concentration and fit to a 4-parameter logistical equation with no fixed parameters.
Potency is reported as the IC50 resulting from the curve fit.

T1 sequence (Q14832 23-879): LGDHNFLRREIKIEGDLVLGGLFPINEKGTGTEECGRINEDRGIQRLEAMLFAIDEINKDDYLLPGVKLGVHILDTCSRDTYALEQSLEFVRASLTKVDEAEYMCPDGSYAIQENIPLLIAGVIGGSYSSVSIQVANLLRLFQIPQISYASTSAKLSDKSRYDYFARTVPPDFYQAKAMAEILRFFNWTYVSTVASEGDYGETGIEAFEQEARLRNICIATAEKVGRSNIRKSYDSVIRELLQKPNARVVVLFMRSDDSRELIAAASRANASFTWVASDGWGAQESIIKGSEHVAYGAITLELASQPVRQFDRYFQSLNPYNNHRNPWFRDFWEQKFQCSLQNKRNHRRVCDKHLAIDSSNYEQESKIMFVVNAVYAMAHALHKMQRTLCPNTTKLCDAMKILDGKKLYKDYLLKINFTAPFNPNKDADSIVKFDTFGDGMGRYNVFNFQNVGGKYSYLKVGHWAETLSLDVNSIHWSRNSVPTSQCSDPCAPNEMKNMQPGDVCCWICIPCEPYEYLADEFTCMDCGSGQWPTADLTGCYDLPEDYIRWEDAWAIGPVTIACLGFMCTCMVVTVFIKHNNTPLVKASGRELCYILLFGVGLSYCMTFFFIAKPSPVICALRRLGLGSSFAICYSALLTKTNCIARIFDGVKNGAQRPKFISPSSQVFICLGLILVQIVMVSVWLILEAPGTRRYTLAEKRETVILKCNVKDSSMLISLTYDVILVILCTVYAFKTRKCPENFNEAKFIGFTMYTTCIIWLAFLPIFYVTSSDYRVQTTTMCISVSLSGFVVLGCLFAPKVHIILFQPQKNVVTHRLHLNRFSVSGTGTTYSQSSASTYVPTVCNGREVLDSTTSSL
T2 sequence (Q14416 19-872): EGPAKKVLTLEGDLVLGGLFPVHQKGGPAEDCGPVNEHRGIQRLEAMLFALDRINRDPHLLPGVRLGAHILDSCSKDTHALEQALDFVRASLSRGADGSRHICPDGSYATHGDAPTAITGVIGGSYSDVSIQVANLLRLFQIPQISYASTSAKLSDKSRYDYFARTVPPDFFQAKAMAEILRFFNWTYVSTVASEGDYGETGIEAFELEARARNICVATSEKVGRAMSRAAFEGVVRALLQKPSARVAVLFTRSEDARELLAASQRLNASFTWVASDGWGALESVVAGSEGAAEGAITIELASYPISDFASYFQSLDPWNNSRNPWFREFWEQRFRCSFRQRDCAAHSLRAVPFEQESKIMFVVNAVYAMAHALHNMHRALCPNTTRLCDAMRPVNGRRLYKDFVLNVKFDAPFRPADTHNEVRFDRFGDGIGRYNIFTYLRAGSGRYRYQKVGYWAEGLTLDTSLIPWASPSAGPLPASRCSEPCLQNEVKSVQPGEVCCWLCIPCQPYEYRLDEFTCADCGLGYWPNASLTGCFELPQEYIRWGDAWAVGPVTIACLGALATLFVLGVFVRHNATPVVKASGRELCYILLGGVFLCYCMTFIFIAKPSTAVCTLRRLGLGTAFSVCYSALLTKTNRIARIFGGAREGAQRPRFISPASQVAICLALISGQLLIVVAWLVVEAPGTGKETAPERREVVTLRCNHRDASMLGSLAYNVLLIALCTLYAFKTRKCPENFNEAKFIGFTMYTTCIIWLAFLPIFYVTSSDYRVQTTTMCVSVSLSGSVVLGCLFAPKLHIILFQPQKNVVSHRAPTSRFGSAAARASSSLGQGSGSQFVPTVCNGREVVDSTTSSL

SMILES: Cn1ccc(COc2cc3c(cc2-c2ccc(F)cc2)C(=O)NC3)n1 [Compound 1, 6-(4-fluorophenyl)-5-((1-methyl-1H-pyrazol-3-yl)methoxy)isoindolin-1-one]
- Human mGlu3 GIRK IC50 (nM) [1]: Inactive
- IC50 [2]: 594 nM

SMILES: Cc1ncc(COc2cc3c(cc2-c2ccc(F)cc2)C(=O)NC3)s1 [Compound 2, 6-(4-fluorophenyl)-5-((2-methylthiazol-5-yl)methoxy)isoindolin-1-one]
- Human mGlu3 GIRK IC50 (nM) [1]: Inactive
- IC50 [2]: 380 nM

SMILES: Cc1csc(COc2cc3c(cc2-c2ccc(F)cc2)C(=O)NC3)n1 [Compound 3, 6-(4-fluorophenyl)-5-((4-methylthiazol-2-yl)methoxy)isoindolin-1-one]
- Human mGlu3 GIRK IC50 (nM) [1]: Inactive
- IC50 [2]: 418 nM

SMILES: CC(C)n1ccc(COc2cc3c(cc2-c2ccc(F)cc2)C(=O)NC3)n1 [Compound 4, 6-(4-fluorophenyl)-5-((1-isopropyl-1H-pyrazol-3-yl)methoxy)isoindolin-1-one]
- Human mGlu3 GIRK IC50 (nM) [1]: Inactive
- IC50 [2]: 261 nM

SMILES: Cc1ccc(COc2cc3c(cc2-c2ccc(F)cc2)C(=O)NC3)cn1 [Compound 5, 6-(4-fluorophenyl)-5-((6-methylpyridin-3-yl)methoxy)isoindolin-1-one]
- Human mGlu3 GIRK IC50 (nM) [1]: Inactive
- IC50 [2]: 392 nM

SMILES: O=C1NCc2cc(OCc3ccncc3)c(-c3ccc(F)cc3)cc21 [Compound 6, 6-(4-fluorophenyl)-5-(pyridin-4-ylmethoxy)isoindolin-1-one]
- Human mGlu3 GIRK IC50 (nM) [1]: Inactive
- IC50 [2]: 237 nM

SMILES: COc1cccc(COc2cc3c(cc2-c2ccc(F)cc2)C(=O)NC3)c1 [Compound 7, 6-(4-fluorophenyl)-5-((3-methoxybenzyl)oxy)isoindolin-1-one]
- Human mGlu3 GIRK IC50 (nM) [1]: Inactive
- IC50 [2]: 8290 nM

SMILES: O=C1NCc2cc(OCc3ccccc3F)c(-c3ccc(F)cc3)cc21 [Compound 8, 5-((2-fluorobenzyl)oxy)-6-(4-fluorophenyl)isoindolin-1-one]
- Human mGlu3 GIRK IC50 (nM) [1]: Inactive
- IC50 [2]: 3200 nM

SMILES: Cc1ocnc1COc1cc2c(cc1-c1ccc(F)cc1)C(=O)NC2 [Compound 9, 6-(4-fluorophenyl)-5-((5-methyloxazol-4-yl)methoxy)isoindolin-1-one]
- Human mGlu3 GIRK IC50 (nM) [1]: Inactive
- IC50 [2]: 150 nM

SMILES: O=C1NCc2cc(OCc3cc4n(n3)CCCO4)c(-c3ccc(F)cc3)cc21 [Compound 10, 5-((6,7-dihydro-5H-pyrazolo[5,1-b][1,3]oxazin-2-yl)methoxy)-6-(4-fluorophenyl)isoindolin-1-one]
- Human mGlu3 GIRK IC50 (nM) [1]: Inactive
- IC50 [2]: 423 nM

SMILES: COc1ccc(-c2cc3c(cc2OCc2ccn(C)n2)CNC3=O)c(F)c1 [Compound 11, 6-(2-fluoro-4-methoxyphenyl)-5-((1-methyl-1H-pyrazol-3-yl)methoxy)isoindolin-1-one]
- Human mGlu3 GIRK IC50 (nM) [1]: Inactive
- IC50 [2]: 131 nM

SMILES: COc1ccc(-c2cc3c(cc2OCc2ccn(C)n2)CNC3=O)cc1 [Compound 12, 6-(4-methoxyphenyl)-5-((1-methyl-1H-pyrazol-3-yl)methoxy)isoindolin-1-one]
- Human mGlu3 GIRK IC50 (nM) [1]: Inactive
- IC50 [2]: 170 nM

SMILES: Cn1ccc(COc2cc3c(cc2-c2ccccc2F)C(=O)NC3)n1 [Compound 13, 6-(2-fluorophenyl)-5-((1-methyl-1H-pyrazol-3-yl)methoxy)isoindolin-1-one]
- Human mGlu3 GIRK IC50 (nM) [1]: Inactive
- IC50 [2]: 214 nM

SMILES: Cn1ccc(COc2cc3c(cc2-c2ccc(C#N)cc2)C(=O)NC3)n1 [Compound 14, 4-(6-((1-methyl-1H-pyrazol-3-yl)methoxy)-3-oxoisoindolin-5-yl)benzonitrile]
- Human mGlu3 GIRK IC50 (nM) [1]: Inactive
- IC50 [2]: 242 nM

SMILES: COc1ccc(-c2cc3c(cc2OCc2csc(C)n2)CNC3=O)c(F)c1 [Compound 15, 6-(2-fluoro-4-methoxyphenyl)-5-((2-methylthiazol-4-yl)methoxy)isoindolin-1-one]
- Human mGlu3 GIRK IC50 (nM) [1]: Inactive
- IC50 [2]: 360 nM

SMILES: Cc1nc(COc2cc3c(cc2-c2ccccc2F)C(=O)NC3)cs1 [Compound 16, 6-(2-fluorophenyl)-5-((2-methylthiazol-4-yl)methoxy)isoindolin-1-one]
- Human mGlu3 GIRK IC50 (nM) [1]: Inactive
- IC50 [2]: 357 nM

SMILES: O=C1NCc2cc(OCc3ccn(C(F)F)n3)c(-c3ccc(F)cc3)cc21 [Compound 17, 5-((1-(difluoromethyl)-1H-pyrazol-3-yl)methoxy)-6-(4-fluorophenyl)isoindolin-1-one]
- Human mGlu3 GIRK IC50 (nM) [1]: Inactive
- IC50 [2]: 292 nM

SMILES: Cc1nc(COc2cc3c(cc2-c2ccc(F)cc2)C(=O)NC3)cs1 [Compound 18, 6-(4-fluorophenyl)-5-((2-methylthiazol-4-yl)methoxy)isoindolin-1-one]
- Human mGlu3 GIRK IC50 (nM) [1]: Inactive
- IC50 [2]: 363 nM

SMILES: COc1ccc(-c2cc3c(cc2OCc2csc(C)n2)CNC3=O)cc1 [Compound 19, 6-(4-methoxyphenyl)-5-((2-methylthiazol-4-yl)methoxy)isoindolin-1-one]
- Human mGlu3 GIRK IC50 (nM) [1]: Inactive
- IC50 [2]: 119 nM

SMILES: Cc1nc(COc2cc3c(cc2-c2ccccc2C#N)C(=O)NC3)cs1 [Compound 20, 2-(6-((2-methylthiazol-4-yl)methoxy)-3-oxoisoindolin-5-yl)benzonitrile]
- Human mGlu3 GIRK IC50 (nM) [1]: Inactive
- IC50 [2]: 189 nM

SMILES: [2H]C([2H])([2H])Oc1ccccc1-c1cc2c(cc1OCc1csc(C)n1)CNC2=O [Compound 21, 6-(2-(methoxy-d3)phenyl)-5-((2-methylthiazol-4-yl)methoxy)isoindolin-1-one]
- Human mGlu3 GIRK IC50 (nM) [1]: Inactive
- IC50 [2]: 1320 nM

SMILES: [2H]C([2H])([2H])Oc1ccc(-c2cc3c(cc2OCc2csc(C)n2)CNC3=O)cc1 [Compound 22, 6-(4-(methoxy-d3)phenyl)-5-((2-methylthiazol-4-yl)methoxy)isoindolin-1-one]
- Human mGlu3 GIRK IC50 (nM) [1]: Inactive
- IC50 [2]: 115 nM

SMILES: [2H]C([2H])([2H])Oc1ccccc1-c1cc2c(cc1OCc1ccn(C)n1)CNC2=O [Compound 23, 6-(2-(methoxy-d3)phenyl)-5-((1-methyl-1H-pyrazol-3-yl)methoxy)isoindolin-1-one]
- Human mGlu3 GIRK IC50 (nM) [1]: Inactive
- IC50 [2]: 7720 nM

SMILES: [2H]C([2H])([2H])Oc1ccc(-c2cc3c(cc2OCc2ccn(C)n2)CNC3=O)cc1 [Compound 24, 6-(4-(methoxy-d3)phenyl)-5-((1-methyl-1H-pyrazol-3-yl)methoxy)isoindolin-1-one]
- Human mGlu3 GIRK IC50 (nM) [1]: Inactive
- IC50 [2]: 99.5 nM
